Data taken from ChEMBL document CHEMBL5584226, “α-Fluorination of tropane compounds and its impact on physicochemical and ADME properties” (Bioorg Med Chem Lett, 2024).
Converted amounts (≈) assume the structure as drawn.

How the values were obtained:
[1] = Aqueous solubility of the compound in PBS buffer at pH 7.4; type: physicochemical
[2] = Permeability of the compound by PAMPA method; type: ADME; conditions: read-out: permeability
[3] = Microsomal stability in human liver microsomes assessed as parent compound remaining measured after 15 mins; type: ADME, Microsome; conditions: read-out: Stability
[4] = target: Voltage-gated inwardly rectifying potassium channel KCNH2 (Homo sapiens, UniProt Q12809); assay: Inhibition of hERG; type: toxicity
Chain of Voltage-gated inwardly rectifying potassium channel KCNH2 (Q12809 whole entry): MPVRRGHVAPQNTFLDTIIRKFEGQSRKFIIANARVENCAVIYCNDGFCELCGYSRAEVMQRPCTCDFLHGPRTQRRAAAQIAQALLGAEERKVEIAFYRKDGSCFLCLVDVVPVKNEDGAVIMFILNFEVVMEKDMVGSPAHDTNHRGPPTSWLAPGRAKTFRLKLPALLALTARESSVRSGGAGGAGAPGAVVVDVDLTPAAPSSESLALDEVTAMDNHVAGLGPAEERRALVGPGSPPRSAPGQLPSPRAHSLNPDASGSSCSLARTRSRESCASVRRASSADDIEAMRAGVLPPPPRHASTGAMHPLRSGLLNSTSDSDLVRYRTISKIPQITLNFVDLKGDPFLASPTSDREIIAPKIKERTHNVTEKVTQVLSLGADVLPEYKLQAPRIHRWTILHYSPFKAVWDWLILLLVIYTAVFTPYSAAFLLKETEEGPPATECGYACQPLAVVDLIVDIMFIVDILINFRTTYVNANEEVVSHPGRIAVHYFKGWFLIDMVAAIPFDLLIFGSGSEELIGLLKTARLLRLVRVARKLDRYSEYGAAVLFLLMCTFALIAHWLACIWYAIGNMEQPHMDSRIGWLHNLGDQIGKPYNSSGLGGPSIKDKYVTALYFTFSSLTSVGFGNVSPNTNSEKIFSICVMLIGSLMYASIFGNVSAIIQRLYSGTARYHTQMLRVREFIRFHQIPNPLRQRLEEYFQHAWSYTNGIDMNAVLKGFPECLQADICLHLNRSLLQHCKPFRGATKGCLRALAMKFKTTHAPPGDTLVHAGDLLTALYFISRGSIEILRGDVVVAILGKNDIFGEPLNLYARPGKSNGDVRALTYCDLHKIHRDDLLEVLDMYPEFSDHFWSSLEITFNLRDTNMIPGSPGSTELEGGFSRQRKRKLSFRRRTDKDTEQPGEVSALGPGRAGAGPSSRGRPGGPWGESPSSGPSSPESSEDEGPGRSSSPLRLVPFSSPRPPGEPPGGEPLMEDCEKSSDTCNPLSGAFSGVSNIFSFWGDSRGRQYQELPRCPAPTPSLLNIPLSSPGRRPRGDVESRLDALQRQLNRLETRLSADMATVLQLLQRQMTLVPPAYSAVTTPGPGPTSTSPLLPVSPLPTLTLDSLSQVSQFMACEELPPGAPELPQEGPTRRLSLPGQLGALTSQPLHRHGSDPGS

[5] = Aqueous solubility of the compound in JP1 at pH 1.2; type: physicochemical; conditions: JP1, pH 1.2
P-gp (ABCB1) = P-gp (ABCB1) (Homo sapiens, UniProt P08183); assay: Substrate activity at P-gp (unknown origin) assessed as efflux ratio; type: ADME; conditions: not told
Chain of P-gp (ABCB1) (P08183 whole entry): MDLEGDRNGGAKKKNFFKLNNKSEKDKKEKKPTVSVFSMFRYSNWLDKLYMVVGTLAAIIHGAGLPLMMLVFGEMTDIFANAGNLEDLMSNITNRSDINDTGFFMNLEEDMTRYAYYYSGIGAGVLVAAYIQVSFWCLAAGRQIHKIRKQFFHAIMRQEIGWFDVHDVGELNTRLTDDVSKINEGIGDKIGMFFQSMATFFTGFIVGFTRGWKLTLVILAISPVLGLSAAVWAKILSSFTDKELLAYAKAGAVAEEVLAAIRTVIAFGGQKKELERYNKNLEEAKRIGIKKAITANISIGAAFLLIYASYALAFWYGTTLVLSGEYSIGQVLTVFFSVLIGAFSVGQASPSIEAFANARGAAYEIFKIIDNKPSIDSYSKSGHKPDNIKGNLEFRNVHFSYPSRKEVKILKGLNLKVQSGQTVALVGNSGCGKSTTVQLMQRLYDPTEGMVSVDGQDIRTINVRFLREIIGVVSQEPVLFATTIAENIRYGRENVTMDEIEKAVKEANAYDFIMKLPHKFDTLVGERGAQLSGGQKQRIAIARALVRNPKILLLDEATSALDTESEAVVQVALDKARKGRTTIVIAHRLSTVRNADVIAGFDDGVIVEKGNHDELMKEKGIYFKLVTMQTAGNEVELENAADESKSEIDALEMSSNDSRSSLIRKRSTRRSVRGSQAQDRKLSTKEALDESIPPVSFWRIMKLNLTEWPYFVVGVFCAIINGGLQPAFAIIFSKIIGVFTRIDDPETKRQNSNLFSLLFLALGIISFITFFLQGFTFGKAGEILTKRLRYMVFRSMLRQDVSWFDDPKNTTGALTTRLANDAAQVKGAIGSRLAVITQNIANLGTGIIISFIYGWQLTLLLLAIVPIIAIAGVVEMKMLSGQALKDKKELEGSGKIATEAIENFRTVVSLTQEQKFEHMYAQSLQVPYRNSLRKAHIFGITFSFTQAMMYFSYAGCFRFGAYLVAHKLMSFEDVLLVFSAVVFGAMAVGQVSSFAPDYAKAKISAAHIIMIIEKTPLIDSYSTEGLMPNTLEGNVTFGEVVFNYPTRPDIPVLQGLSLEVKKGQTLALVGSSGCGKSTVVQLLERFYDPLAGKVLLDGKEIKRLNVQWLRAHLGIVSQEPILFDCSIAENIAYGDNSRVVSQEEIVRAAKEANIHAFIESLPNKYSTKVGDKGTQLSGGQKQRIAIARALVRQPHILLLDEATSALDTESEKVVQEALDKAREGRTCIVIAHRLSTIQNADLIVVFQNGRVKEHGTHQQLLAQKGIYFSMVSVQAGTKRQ

[6] = target: Sodium channel protein type 5 subunit alpha (Homo sapiens, UniProt Q14524); assay: Inhibition of Nav1.5 (unknown origin)
Chain of Sodium channel protein type 5 subunit alpha (Q14524 whole entry): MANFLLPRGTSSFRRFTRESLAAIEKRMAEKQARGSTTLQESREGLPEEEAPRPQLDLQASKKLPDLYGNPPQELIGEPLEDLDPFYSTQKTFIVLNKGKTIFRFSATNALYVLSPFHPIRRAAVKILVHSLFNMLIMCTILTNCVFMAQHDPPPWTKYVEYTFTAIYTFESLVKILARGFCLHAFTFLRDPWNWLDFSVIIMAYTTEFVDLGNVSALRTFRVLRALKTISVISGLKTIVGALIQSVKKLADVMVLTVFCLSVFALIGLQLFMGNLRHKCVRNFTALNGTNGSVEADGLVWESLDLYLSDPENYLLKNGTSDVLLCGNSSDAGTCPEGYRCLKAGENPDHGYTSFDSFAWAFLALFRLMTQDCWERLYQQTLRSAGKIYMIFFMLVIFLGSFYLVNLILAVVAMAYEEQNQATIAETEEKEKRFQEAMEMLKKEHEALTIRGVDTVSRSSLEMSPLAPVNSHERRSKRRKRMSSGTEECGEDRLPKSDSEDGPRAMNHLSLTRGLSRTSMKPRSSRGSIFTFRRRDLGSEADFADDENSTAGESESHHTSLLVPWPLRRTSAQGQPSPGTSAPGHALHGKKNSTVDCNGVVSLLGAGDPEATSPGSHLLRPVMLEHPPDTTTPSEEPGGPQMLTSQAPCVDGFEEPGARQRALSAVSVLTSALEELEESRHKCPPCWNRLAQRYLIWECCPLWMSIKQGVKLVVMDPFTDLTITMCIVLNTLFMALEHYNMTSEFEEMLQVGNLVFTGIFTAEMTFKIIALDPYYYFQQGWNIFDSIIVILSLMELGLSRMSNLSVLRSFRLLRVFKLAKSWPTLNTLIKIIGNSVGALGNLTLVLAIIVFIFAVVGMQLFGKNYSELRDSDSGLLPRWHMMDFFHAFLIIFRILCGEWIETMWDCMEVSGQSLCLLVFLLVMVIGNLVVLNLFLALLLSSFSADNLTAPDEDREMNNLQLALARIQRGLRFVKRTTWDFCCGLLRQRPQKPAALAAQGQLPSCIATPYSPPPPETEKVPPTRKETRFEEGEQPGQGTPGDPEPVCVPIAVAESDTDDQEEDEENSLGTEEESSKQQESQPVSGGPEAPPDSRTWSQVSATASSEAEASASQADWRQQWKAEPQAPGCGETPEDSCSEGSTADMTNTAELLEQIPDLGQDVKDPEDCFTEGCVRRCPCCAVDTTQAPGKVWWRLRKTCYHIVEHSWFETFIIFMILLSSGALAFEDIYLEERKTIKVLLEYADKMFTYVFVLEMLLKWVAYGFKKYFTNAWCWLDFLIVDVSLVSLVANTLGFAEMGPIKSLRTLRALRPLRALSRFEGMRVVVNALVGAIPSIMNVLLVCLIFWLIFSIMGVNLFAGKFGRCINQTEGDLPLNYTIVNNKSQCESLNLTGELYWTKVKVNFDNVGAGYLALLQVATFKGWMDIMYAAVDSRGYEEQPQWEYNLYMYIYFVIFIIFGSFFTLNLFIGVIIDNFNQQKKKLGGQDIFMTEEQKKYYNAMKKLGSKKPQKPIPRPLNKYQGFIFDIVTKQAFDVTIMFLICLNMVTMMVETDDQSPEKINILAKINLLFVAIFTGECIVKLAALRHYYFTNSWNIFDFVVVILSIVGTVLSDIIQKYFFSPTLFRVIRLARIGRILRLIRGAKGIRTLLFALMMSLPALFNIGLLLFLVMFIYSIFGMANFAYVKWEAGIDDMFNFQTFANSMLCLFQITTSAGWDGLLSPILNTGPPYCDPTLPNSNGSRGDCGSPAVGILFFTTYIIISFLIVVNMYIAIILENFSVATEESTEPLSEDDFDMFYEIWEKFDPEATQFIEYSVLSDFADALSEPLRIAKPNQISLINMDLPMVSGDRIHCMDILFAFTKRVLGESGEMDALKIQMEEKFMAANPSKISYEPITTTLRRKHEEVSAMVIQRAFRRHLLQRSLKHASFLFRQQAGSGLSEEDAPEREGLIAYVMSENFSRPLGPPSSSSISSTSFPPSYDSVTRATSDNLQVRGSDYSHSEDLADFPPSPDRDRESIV

[7] = Dissociation constant, pKa of the compound; type: physicochemical

In the case of `O=c1n(CC(F)CN2C3CCC2CC(OCc2ccccc2F)C3)nc2n1CCC2` (stereo not drawn), the solubility [1] is reported as 82 µM (≈ 34.3 µg/mL), the Papp [2] is reported as 4.44 ×10⁻⁶ cm/s and the remaining at 0.25 h [3] is reported as 92.3%. It also gave an IC50 [4] of 22.2 µM, a solubility [5] of 79 µM (≈ 33.1 µg/mL) and an efflux ratio (P-gp (ABCB1)) of 2.52. The IC50 [6] was 13.4 µM.
For `O=c1n(CC(F)CN2C3CCC2CC(OCc2ccccc2F)C3)nc2ccccn12` (stereo not drawn), the solubility [1] was 82 µM (≈ 35.1 µg/mL), the Papp [2] was 10.6 ×10⁻⁶ cm/s and the remaining at 0.25 h [3] was 66.9%. For the same compound, the IC50 [4] was 1.8 µM, the solubility [5] was no less than 100 µM and the pKa [7] was 8.1. It also gave an efflux ratio (P-gp (ABCB1)) of 1.27 and an IC50 [6] of 17.8 µM.
`O=c1n(CCCN2C3CCC2CC(OCc2ccccc2F)C3)nc2n1CCC2` (stereo not drawn) gave a solubility [1] of no less than 100 µM, a Papp [2] of 1.62 ×10⁻⁶ cm/s and a remaining at 0.25 h [3] of 95.8%. The IC50 [4] was 5.2 µM, the solubility [5] was no less than 100 µM and the efflux ratio (P-gp (ABCB1)) was 19.4. It also gave an IC50 [6] of 5.9 µM.
Compound `O=c1n(CCCN2C3CCC2(F)CC(OCc2ccccc2F)C3)nc2ccccn12` (stereo not drawn) has a solubility [1] of 73 µM (≈ 31.3 µg/mL), a Papp [2] of 10.6 ×10⁻⁶ cm/s and a remaining at 0.25 h [3] of 10.7%. The IC50 [4] was 7.6 µM, the solubility [5] was no less than 100 µM and the pKa [7] was 5.4. It also gave an efflux ratio (P-gp (ABCB1)) of 0.96 and an IC50 [6] greater than 30 µM.
`O=c1n(CC(O)CN2C3CCC2CC(OCc2ccccc2F)C3)nc2n1CCC2` (stereo not drawn) showed a solubility [1] of 94 µM (≈ 39.2 µg/mL), a Papp [2] of 0.46 ×10⁻⁶ cm/s and a remaining at 0.25 h [3] of 99.8%. The IC50 [4] was 19.7 µM, the solubility [5] was no less than 100 µM and the efflux ratio (P-gp (ABCB1)) was 9.16. It also gave an IC50 [6] of 12.9 µM.
`O=c1n(CCCN2C3CCC2CC(COc2ccccc2F)C3)nc2ccccn12` (stereo not drawn) showed a solubility [1] of 95 µM (≈ 39 µg/mL), a Papp [2] of 4.86 ×10⁻⁶ cm/s and a remaining at 0.25 h [3] of 45.6%. For the same compound, the IC50 [4] was 0.07 µM, the solubility [5] was no less than 100 µM and the efflux ratio (P-gp (ABCB1)) was 3.07. The IC50 [6] was 6 µM.
`O=c1n(CC(O)CN2C3CCC2CC(OCc2ccccc2F)C3)nc2ccccn12` (stereo not drawn) gave a solubility [1] of 95 µM (≈ 40.5 µg/mL), a Papp [2] of 2.16 ×10⁻⁶ cm/s and a remaining at 0.25 h [3] of 82%. It also gave an IC50 [4] of 1.2 µM, a solubility [5] of no less than 100 µM and an efflux ratio (P-gp (ABCB1)) of 6.36. It also gave an IC50 [6] of 11.9 µM.
For `O=c1n(CCCN2C3CCC2(F)CC(OCc2ccccc2F)C3)nc2n1CCC2` (stereo not drawn), the solubility [1] was 96 µM (≈ 40.2 µg/mL), the Papp [2] was 7.78 ×10⁻⁶ cm/s and the remaining at 0.25 h [3] was 31.8%. For the same compound, the IC50 [4] was greater than 30 µM, the solubility [5] was no less than 100 µM and the efflux ratio (P-gp (ABCB1)) was 1.39. It also gave an IC50 [6] greater than 30 µM.
Compound `O=c1n(CCCN2C3CCC2CC(OCc2ccccc2F)C3)nc2ccccn12` (stereo not drawn) has a solubility [1] of 99 µM (≈ 40.6 µg/mL), a Papp [2] of 4.93 ×10⁻⁶ cm/s and a remaining at 0.25 h [3] of 70.9%. It also gave an IC50 [4] of 0.11 µM, a solubility [5] of no less than 100 µM and a pKa [7] of 8.7. For the same compound, the efflux ratio (P-gp (ABCB1)) was 3.39 and the IC50 [6] was 3 µM.
`O=c1n(CCCN2C3CCC2(F)CC(COc2ccccc2F)C3)nc2ccccn12` (racemic) showed a solubility [1] of 61 µM (≈ 26.1 µg/mL), a Papp [2] of 11.1 ×10⁻⁶ cm/s and a remaining at 0.25 h [3] of 34.7%. It also gave an IC50 [4] greater than 30 µM, a solubility [5] of no less than 100 µM and an efflux ratio (P-gp (ABCB1)) of 1.34. The IC50 [6] was greater than 30 µM.
